In patent US20080057529A1, “Method for Identifying Histone Deacetylase Inhibitors” (priority 2003, published 2008):

Columns and labels:
Type in all cases: cell-based, human
p21 minimal promoter [1] = assay: Fluorometric β-lactamase activity assay in stable HeLa clone 1.17 (p21m-BLA)
Procedure: All clones were screened for the presence of stably and functional integrated copies of the p21m-BLA reporter gene transcription cassette by performing a fluorometric β-lactamase activity assay after treatment with the HDAC inhibitor Apicidin at a concentration of 1 μM (saturating dose representing 100% of Bla gene activation, i.e., 100% of HDAC inhibition). A 100 μL aliquot of cells for each stable transformant in complete DMEM was plated into a well of a 96 well plate at about 36,000 cells per well for treatment with 1 μM Apicidin (saturating dose) and a 100 μL aliquot of cells was plated into a well of a 96 well plate at 24,000 cells per well for treatment with DMSO (vehicle control). […] After 4 hours, 25 μL of complete DMEM containing Apicidin at 5× final concentration or DMSO (5%) was added to each of the wells. The cells were then grown at 37° C., 5% CO2 for about 12 to 16 hours. Afterwards, the medium was removed and 100 μL of DMEM without serum and 25 μL of FRET labeled CCF2-AM Bla substrate diluted in the appropriate buffer according to the manufacturer recommendations were each added to the cells to give a final concentration of 1 μM CCF2-AM.

p21 minimal promoter [2] = assay: Transient transfection of HeLa cells with p21m-SEAP reporter plasmid, SEAP activity; conditions: Apicidin 1 μM; for Fold Induct. (SEAP norm) / Fold induct. (SEAP) / SEAP (fold ind) / SEAP norm.-bckg/RLU norm (fold ind): vs DMSO
Procedure: To determine whether the p21 minimal promoter was responsive to HDAC inhibitors, a reporter plasmid containing the secreted alkaline phosphatase gene (SEAP) operably linked to the p21 minimal promoter (−182 through +25), pcDNA3-21m-SEAP, was tested in transient transfection experiments of HeLa cells. […] All data summarized in Tables 4 through 7 were obtained by normalizing the total amount of transfected DNA to 2.1 μg using a promoterless plasmid.

p21 minimal promoter [3] = assay: Transient transfection of HeLa cells with p21m-BLA reporter plasmid, Bla staining (blue cells); conditions: Apicidin 1 μM; for % Blue cells: Table 3, 2 μg p21m-BLA + 0.1 μg pCMV-Luc, TSA 300 nM; for Bla staining at 60 min. / fold-ind. at 60 min. (Bla): Table 6; for fold-ind. at 60 min. (Bla) / fold-ind. at 15 min. (Bla): vs DMSO; for Bla staining at 15 min / fold-ind. at 15 min. (Bla): Table 7 (repeat)
Procedure: (§1) The p21m-BLA reporter plasmid was tested in transient transfection experiments of HeLa cells to evaluate the responsiveness of the minimal p21 promoter and the Bla reporter system to known HDAC inhibitors. In the first two transfection experiments, HeLa cells were transfected with 1 or 2 μg of Bla reporter plasmid containing either p21 minimal promoter (p21m-BLA) or CMV promoter (CMV-BLA) and 0.1 μg of pCMV-Luc or pRSV-Luc control plasmids. Different DNA-FUGENE transfection reagent ratios were tested (FUGENE is available from Roche Applied Science, Indianapolis, Ind.). […] Data are summarized below in Tables 1 and 2.
(§2) The percentage of β-lactamase-positive cells increased with time independent of the presence of HDAC inhibitors and was constantly higher with p21m-BLA than with pCMV-BLA.
(§3) In light of the above, the lack of apparent Bla activation in the above transfection experiments might have been due to the high sensitivity of the method. Therefore, transient transfections in which an accurate titration of the reporter plasmid DNA were performed. The titration of the reporter plasmid included using amounts lower than was used above. […] The transient transfections were repeated and the result confirmed (Table 7).

CMV promoter = assay: Transient transfection of HeLa cells with CMV-BLA (pCMV-BLA) reporter plasmid, Bla staining (blue cells); conditions: Apicidin 1 μM; for % Blue cells: Table 3, 2 μg pCMV-BLA + 0.1 μg pCMV-Luc, TSA 300 nM; for Bla staining at 60 min. / fold-ind. at 60 min. (Bla): Table 6; for fold-ind. at 60 min. (Bla): vs DMSO
Procedure: as §1, §2, §3

HeLa cells = assay: Cell death in transiently transfected HeLa cells; conditions: after 6 hours; TSA 300 nM, Apicidin 1 μM; transfected HeLa cells
Procedure: as §1, §2

endogenous p21 = assay: Induction of endogenous p21 in HeLa cells, immunoblot; conditions: Homo sapiens, 13 hour treatment, immunoblot densitometry, read-out: Endogenous p2 EC50
Procedure: (§4) Induction of endogenous p21 and acetylation of core histones (inhibition of HDAC activity) was as follows. Dose-response experiments were performed in HeLa cells with different classes of known HDAC inhibitors. […] An α-tubulin-specific antibody (Sigma, St. Louis, Mo.; catalog number: T9026) was used as an internal standard. Quantitative data were obtained by densitometric analysis of X-ray films and were normalized for the internal standard values.

[4] = test system: HDAC activity (acetylated histone H3); assay: Acetylation of core histones (inhibition of HDAC activity) in HeLa cells, acetylated histone H3 immunoblot; conditions: Homo sapiens, HeLa, 13 h, read-out: AcH3 EC50
Procedure: as §4

[5] = Table 5, TSA 300 nM, P21m-SEAP 0.1 μg DNA
[6] = Table 5, TSA 300 nM, P21m-SEAP 0.2 μg DNA
[7] = Table 5, TSA 300 nM, P21m-SEAP 0.5 μg DNA
[8] = Table 5, TSA 300 nM, P21m-SEAP 1 μg DNA
[9] = Table 5, TSA 300 nM, P21m-SEAP 2 μg DNA

## CCC(=O)CCCCC[C@@H]1NC(=O)[C@H]2CCCCN2C(=O)[C@H]([C@@H](C)CC)NC(=O)[C@H](Cc2cn(OC)c3ccccc23)NC1=O [Apicidin]
p21 minimal promoter [1]; Homo sapiens, HeLa, 13 h, read-out: p21m-Bla EC50
  EC50: 170 nM
p21 minimal promoter [1]; clone 1.17, saturating amounts of Apicidin (1 μM)
  induction over DMSO (slope analysis of β-lactamase activity): ~200 fold
p21 minimal promoter [2]; TSA 300 nM, p21m-SEAP promoter titration in HeLa
  induction of SEAP (maximum): up to 20 fold
p21 minimal promoter [2]; Table 4, P21m-SEAP 0 μg DNA (total DNA 2.1 μg)
  SEAP (10 min): 11366
p21 minimal promoter [2]; Table 4, P21m-SEAP 0 μg DNA
  SEAP activity normalised to total protein: 5683
  Fold Induct. (SEAP norm): 4.901 fold
  Fold induct. (SEAP): 3.5 fold
p21 minimal promoter [2]; Table 4, P21m-SEAP 0.1 μg DNA (total DNA 2.1 μg)
  SEAP (10 min): 41278
p21 minimal promoter [2]; Table 4, P21m-SEAP 0.1 μg DNA
  SEAP activity normalised to total protein: 27518.67
  Fold Induct. (SEAP norm): 7.691 fold
  Fold induct. (SEAP): 4.8 fold
p21 minimal promoter [2]; Table 4, P21m-SEAP 0.2 μg DNA (total DNA 2.1 μg)
  SEAP (10 min): 33449
p21 minimal promoter [2]; Table 4, P21m-SEAP 0.2 μg DNA
  SEAP activity normalised to total protein: 16724.5
  Fold Induct. (SEAP norm): 14.9372 fold
  Fold induct. (SEAP): 10.3 fold
p21 minimal promoter [2]; Table 4, P21m-SEAP 0.5 μg DNA (total DNA 2.1 μg)
  SEAP (10 min): 81729
p21 minimal promoter [2]; Table 4, P21m-SEAP 0.5 μg DNA
  SEAP activity normalised to total protein: 54486
  Fold Induct. (SEAP norm): 19.2643 fold
  Fold induct. (SEAP): 9.6 fold
p21 minimal promoter [2]; Table 4, P21m-SEAP 1 μg DNA (total DNA 2.1 μg)
  SEAP (10 min): 85405
p21 minimal promoter [2]; Table 4, P21m-SEAP 1 μg DNA
  SEAP activity normalised to total protein: 61003.57
  Fold Induct. (SEAP norm): 17.5478 fold
  Fold induct. (SEAP): 8.8 fold
p21 minimal promoter [2]; Table 4, P21m-SEAP 2 μg DNA (total DNA 2.1 μg)
  SEAP (10 min): 795345
p21 minimal promoter [2]; Table 4, P21m-SEAP 2 μg DNA
  SEAP activity normalised to total protein: 441858.3
  Fold Induct. (SEAP norm): 15.3076 fold
  Fold induct. (SEAP): 9.8 fold
p21 minimal promoter [2]; Table 5, TSA 300 nM, P21m-SEAP 0 μg DNA (total DNA 2.1 μg)
  SEAP (10 min): 2133
p21 minimal promoter [2]; Table 5, TSA 300 nM, P21m-SEAP 0 μg DNA
  SEAP (fold ind): 1.8 fold
p21 minimal promoter [2]; [5]
  SEAP norm-bckg/RLU norm: 4,740.65
  SEAP (fold ind): 3.3 fold
  SEAP norm.-bckg/RLU norm (fold ind): 10.7 fold
p21 minimal promoter [2]; Table 5, TSA 300 nM, P21m-SEAP 0.1 μg DNA (total DNA 2.1 μg)
  SEAP (10 min): 5661
p21 minimal promoter [2]; [6]
  SEAP norm-bckg/RLU norm: 10,064.04
  SEAP (fold ind): 3.75 fold
  SEAP norm.-bckg/RLU norm (fold ind): 16.4 fold
p21 minimal promoter [2]; Table 5, TSA 300 nM, P21m-SEAP 0.2 μg DNA (total DNA 2.1 μg)
  SEAP (10 min): 10279
p21 minimal promoter [2]; [7]
  SEAP norm-bckg/RLU norm: 24,280.99
  SEAP (fold ind): 6.25 fold
  SEAP norm.-bckg/RLU norm (fold ind): 17.9 fold
p21 minimal promoter [2]; Table 5, TSA 300 nM, P21m-SEAP 0.5 μg DNA (total DNA 2.1 μg)
  SEAP (10 min): 16014
p21 minimal promoter [2]; [8]
  SEAP norm-bckg/RLU norm: 68,122.56
  SEAP (fold ind): 6.8 fold
  SEAP norm.-bckg/RLU norm (fold ind): 16.9 fold
p21 minimal promoter [2]; Table 5, TSA 300 nM, P21m-SEAP 1 μg DNA (total DNA 2.1 μg)
  SEAP (10 min): 48928
p21 minimal promoter [2]; [9]
  SEAP norm-bckg/RLU norm: 219,589.86
  SEAP (fold ind): 4.5 fold
  SEAP norm.-bckg/RLU norm (fold ind): 17.3 fold
p21 minimal promoter [2]; Table 5, TSA 300 nM, P21m-SEAP 2 μg DNA (total DNA 2.1 μg)
  SEAP (10 min): 108562
p21 minimal promoter [3]; only with the lowest DNA amounts
  induction of β-lactamase activity: 3- to 5 fold
p21 minimal promoter [3]; 6 hr treatment
  % Blue cells: 6%
p21 minimal promoter [3]; 12 hr treatment
  % Blue cells: 10%
p21 minimal promoter [3]; 24 hr treatment
  % Blue cells: 25%
p21 minimal promoter [3]; p21m-BLA 0 μg DNA
  Bla staining at 60 min.: 0%
  Bla staining at 15 min: 0%
p21 minimal promoter [3]; p21m-BLA 0.02 μg DNA
  Bla staining at 60 min.: 2-3%
  fold-ind. at 60 min. (Bla): 3-4 fold
  Bla staining at 15 min: 6-10%
  fold-ind. at 15 min. (Bla): 2-3 fold
p21 minimal promoter [3]; p21m-BLA 0.05 μg DNA
  Bla staining at 60 min.: 10-15%
  fold-ind. at 60 min. (Bla): 5 fold
  Bla staining at 15 min: 20-25%
  fold-ind. at 15 min. (Bla): 4-5 fold
p21 minimal promoter [3]; p21m-BLA 0.1 μg DNA
  Bla staining at 60 min.: 25-30%
  fold-ind. at 60 min. (Bla): 2 fold
  Bla staining at 15 min: 25-30%
  fold-ind. at 15 min. (Bla): 2 fold
p21 minimal promoter [3]; p21m-BLA 0.2 μg DNA
  Bla staining at 60 min.: 35-40%
  fold-ind. at 60 min. (Bla): 2 fold
  Bla staining at 15 min: 40%
  fold-ind. at 15 min. (Bla): 1.3 fold
p21 minimal promoter [3]; p21m-BLA 0.5 μg DNA
  Bla staining at 60 min.: 50%
  fold-ind. at 60 min. (Bla): 1.25 fold
  Bla staining at 15 min: 40%
  fold-ind. at 15 min. (Bla): 1 fold
CMV promoter; 6 hr treatment
  % Blue cells: 4%
CMV promoter; 12 hr treatment
  % Blue cells: 3%
CMV promoter; 24 hr treatment
  % Blue cells: 10%
CMV promoter; pCMV-BLA 0 μg DNA
  Bla staining at 60 min.: 0%
CMV promoter; pCMV-BLA 0.02 μg DNA
  Bla staining at 60 min.: 5%
  fold-ind. at 60 min. (Bla): 1 fold
CMV promoter; pCMV-BLA 0.05 μg DNA
  Bla staining at 60 min.: 5-10%
  fold-ind. at 60 min. (Bla): 1 fold
CMV promoter; pCMV-BLA 0.1 μg DNA
  Bla staining at 60 min.: 10-15%
  fold-ind. at 60 min. (Bla): 1 fold
CMV promoter; pCMV-BLA 0.2 μg DNA
  Bla staining at 60 min.: 20%
  fold-ind. at 60 min. (Bla): 1 fold
CMV promoter; pCMV-BLA 0.5 μg DNA
  Bla staining at 60 min.: 40%
  fold-ind. at 60 min. (Bla): 1 fold
HeLa cells
  Cell-death: not visible
Endogenous p21
  EC50: 70 nM
[4]
  EC50: 110 nM
